From patent US20060229250A1, “Ghrelin associated peptide and its uses” (priority 2005, published 2006) come the findings set out here.

Assay [1] concerns plasma membrane preparations of rat jejunum. Nature of the assay: I125-obestatin radioligand binding to jejunal membranes. Particulars: for competition for labeled obestatin binding: displacement of iodinated wild type obestatin, rat jejunal membranes. As for the experimental part: Iodination of obestatin was performed using the lodogen (Pierce, Upland, Ind.) procedure. Mixtures of the peptide (20 μg) and 1 mCi [125I] Nal were transferred to precoated lodogen vials and incubated for 4 min. The 125I-labeled peptide was applied to a Sep-Pak C18 cartridge (Waters) before elution with 60% acetonitrile/0.1% TFA. For radioligand binding assays, rat jejunum or other tissues were washed with buffer A (20 mM Hepes, 5 mM EDTA, 1 mM dithiothreitol (DTT), 10 μM amidinophenylmethanesulfonyl fluoride, 5 mg/L leupeptin, 100 mM KCl, pH 7.5), cut into small pieces, and homogenized using a motorized homogenizer. The homogenates were centrifuged at 1,000 g for 5 min. and the supernatant was centrifuged at 300,000 g for 1 hour at 2° C. The pellets (crude membrane fractions) were resuspended with buffer A without KCl, quickly frozen under liquid nitrogen, and stored at −80° C. until use.
After incubation, the tubes were centrifuged for 10 min. at 10,000 g, and pellets were washed twice in ice-cold PBS before quantitation of radioactivity with a γ-spectrophotometer. Specific binding was calculated by subtracting nonspecific binding from total binding.

Assay [2] is described as follows: Body weight in adult male rats under long-term peptide treatment. The class given is in vivo. Particulars: 1 μmol per kg body weight, three times daily. The source says: The observed inhibition of jejunal contraction may trigger an afferent vagus signal to induce a central satiety response.
The next assay has as its system jejunum muscle strips. Nature of the assay: Isometric force measurement of jejunal muscle strips. To be noted: in vitro; for contractile activity of jejunum muscle strips: isometric force, percent of maximal acetylcholine contraction. The procedure: Isometric force measurements. Strips of jejunal muscle (˜1 cm in length) were cut along the longitudinal axis of the circular muscle layer and the mucosa was removed to minimize contamination with endogenous peptides. Muscle strips were mounted to a TIS8105R (Kent Scientific Corporation, Torrington, Conn.) isometric strain gauge and immersed in a 5 ml organ bath maintained at 37° C. with oxygenated KRB [Krebs-Ringer phosphate buffer, consisting of 50 mM HEPES, 100 mM NaCl, 5 mM KCl, and 1 mM each of MgCl2, NaH2PO4, and CaCl2] as previously described. A resting force of 1.0 g was applied to intestinal muscles and a 1.5 hours equilibration period was allowed before testing of different peptides during a 5 min. period. After each test, muscle strips were washed with fresh KRB for 20 min. to allow full recovery of basal contractile activities. Maximal contraction was evaluated at the beginning and end of each experiment after treatment with 10 μM of acetylcholine chloride. Contractility data were digitized and stored in a computer using DAS Wizard™ (Measurement Computing, Middleboro, Mass.). The magnitude of contractile strength is expressed as percent of maximal contraction induced by acetylcholine.

In assay [3] the test system is cultured rat pituitary cells. The experiment in a line: Growth hormone secretion by cultured anterior pituitary cells. The format is cell-based. Particulars: 1 hour incubation. As for the experimental part: Pituitary cell cultures. Anterior pituitaries were removed from adult male Sprague-Dawley rats and dispersed with 0.3% collagenase, 0.1% hyaluronidase and DNase I (10 μg/ml). The cell suspension was centrifuged at 300 g for 5 min. and cells were washed twice before incubation in Dulbecco minimal essential medium (DMEM) containing 0.1% bovine serum albumin (BSA), penicillin (100 units/ml), streptomycin (100 μg/ml), fungizone (2.5 μg/ml), and 10% fetal calf serum. Cells were seeded onto poly-lysine-coated 24-well plates at a density of ˜3×10^5 cells/well. Cultures were kept in a humidified atmosphere of 5% CO2 and 95% air at 37° C. […] Media was removed for growth hormone measurement by an enzyme-linked immunosorbent assay.

Assay [4] in a line: Food intake in mice after peptide injection. The format is in vivo. The procedure: (§1) Analysis of gastrointestinal functions. Eight-week-old C57BL6 male mice were housed individually in a regulated environment. Before intraperitoneal treatment with different peptides, mice were deprived of food for 16 hours with free access to water. Food intake was measured by placing preweighed pellets in the cage and weighing uneaten pellets at 5 hours after treatment. For intracerebroventricular injection of different peptides, mice were deprived of food for 16 hours. Free-hand injections were performed at 2 hours after light onset and food intake monitored for 5 hours. To estimate gastric emptying responses, mice deprived of food for 16 hours were given food pellets for 90 min. before injection of different hormones or saline. After treatment, mice were deprived of food again and sacrificed 0.5, 1, and 2 hours later. The stomach was excised at the pylorus and cardia before weighing. Gastric emptying was calculated by subtracting the stomach weight of treated mice from those sacrificed at the time of peptide injection.

A further assay is described as follows: Gastric emptying in mice. The format is in vivo. To be noted: 1 μmol per kg body weight, 0.5, 1 and 2 hours after treatment. As for the experimental part: as §1
[5] abbreviates: intracerebroventricular treatment, 8 nmol per kg body weight, mice, monitored for 5 hours.
The mark [6] stands for this setting: intraperitoneal injection, adult male mice deprived of food for 16 hours, cumulative intake up to 5 hours.

Ends that are not written are not given here. * marks the point of attachment. Octanoyl = CCCCCCCC(=O)*

Turning to “FNAPFDVGIKLSGVLYQQHSQAL-NH2 [L15-obestatin]”, the “competition for labeled obestatin binding” value in assay [1] was “potency similar to the wild type obestatin”.

On to FNAPFDVGIKLSGVQYQQHSQAL-NH2 [obestatin], for which the body weight result in assay [2] is listed as “suppressed body-weight gain”. In addition, the “contractile activity of jejunum muscle strips” value in the assay on jejunum muscle strips is “decreased the contractile activity”. Moreover, in the assay on jejunum muscle strips (together with ghrelin), the “effect on ghrelin-stimulated contractile activity of jejunum muscle strips” value is “antagonized the stimulatory effect of ghrelin”. The growth hormone secretion result in assay [3] is “did not increase GH secretion”. Besides, the food intake result was “decreased food intake” in assay [4] (setting [5]); “suppressed food intake in a time- and dose-dependent manner” in assay [4] (setting [6]). Further, in “Gastric emptying in mice”, the gastric emptying activity entry was “sustained suppression of gastric emptying activity”.

In the case of “FNAPFDVGIKLSGVQYQQHSQALG (human) [NA-obestatin]”, in assay [4] (setting [6]), the food intake entry is “less effective”.

Regarding “I125-obestatin: obestatin iodinated with [125I] NaI by the Iodogen procedure”, the “specific binding of I125-obestatin” value in assay [1] (saturation binding, crude plasma membrane fractions of rat jejunum) is “High affinity binding”.

For MTII [reference compound], the food intake entry in assay [4] (setting [5]) is on record as “anorexigenic effect”.

As for “ghrelin: peptide of 28 amino acids, serine-3 n-octanoylated; endogenous GHSR ligand; purchased from Phoenix Pharmaceuticals (GSS(Octanoyl)FLSPEHQRVQQRKESKKPPAKLQPR; UniProt Q9UBU3 24-51, looked up) [reference compound]”, the body weight entry in assay [2] is on record as “increased body weight”. The “contractile activity of jejunum muscle strips” value in the assay with jejunum muscle strips is on record as “stimulatory effect”. The growth hormone secretion result in assay [3] is given as “stimulated growth hormone secretion”. Further, in assay [1], the “competition for labeled obestatin binding” value is on record as “does not compete”.
